Patent US20080207641A1 (Synta Pharmaceuticals Corp., priority 2006, published 2008)
pIC50: −log10 of the molar value. ≈ marks a conversion by molar mass, not a printed value.

Legend:
[1] = Solubility of salts (water solubility); format: physicochemical; conditions: for Water Solubility: salts of the parent compound
[2] = Solubility in simulated gastric fluids; format: physicochemical
From the text: Solubility in Simulated Gastric Fluids

IL-2 production = assay: Inhibition of IL-2 production in PHA-activated Jurkat cells (ELISA); format: cell-based; conditions: Homo sapiens, 20 h, PHA 2.5 μg/mL, 20 hours at 37° C., IL-2 ELISA
Procedure: Jurkat cells were placed in a 96 well plate (0.5 million cells per well in 1% FBS medium) then a test compound of this invention was added at different concentrations. After 10 minutes, the cells were activated with PHA (final concentration 2.5 μg/mL) and incubated for 20 hours at 37° C. under CO2. The final volume was 200 μL. Following incubation, the cells were centrifuged and the supernatants collected and stored at −70° C. prior to assaying for IL-2 production. A commercial ELISA kit (IL-2 Eli-pair, Diaclone Research, Besancon, France) was used to detect production of IL-2, from which dose response curves were obtained. The IC50 value was calculated as the concentration at which 50% of maximum IL-2 production after stimulation was inhibited versus a non-stimulation control.

[3] = Pharmacokinetic profile / oral bioavailability in male SD rats; format: in vivo; conditions: rat; for AUC(0-inf) / AUC(0-t) / Cmax / Tmax / half-life: plasma
Procedure: The pharmacokinetic profile of 3-fluoro-N-(4-(4-methyl-1-(thiazol-2-yl)-1,2,5,6-tetrahydro pyridin-3-yl)phenyl)isonicotinamide dihydrochloride was studied in male SD rats. Rats were bled at 5 min (IV only), 15 min, 30 min, 1 h, 2 h, 4 h, 6 h, 8 h and 24 h. Samples were prepared by mixing 50 μL of plasma, 5 μL, DMSO, and 250 μL of ACN, followed by shaking for 5 min, centrifuging at 4400 rpm for 15 min at 8° C. 225 μL of supernatant was vacuum dried, reconstituted with 180 μL of 20% ACN (10 mM NH4OAc), shaken for ˜2 min and transferred to 96MT plate. Samples were analyzed by HPLC, Phenomenex Onyx Monolithic C18, 4.6×100 mm column eluted with 30-95% ACN (10 mM NH4OAc) gradient. Detection was at 280 nm.

SMILES	solubility ([2]; simulated gastric fluid)	pIC50 (IL-2 production)	other results
CC1=C(c2ccc(NC(=O)c3ccncc3F)cc2)CN(c2nccs2)CC1 [HBr, 3-fluoro-N-(4-(4-methyl-1-(thiazol-2-yl)-1,2,5,6-tetrahydropyridin-3-yl)phenyl)isonicotinamide]	–	–	Water Solubility [1]: 11560 µg/mL
CC1=C(c2ccc(NC(=O)c3ccncc3F)cc2)CN(c2nccs2)CC1 [Citrate, 3-fluoro-N-(4-(4-methyl-1-(thiazol-2-yl)-1,2,5,6-tetrahydropyridin-3-yl)phenyl)isonicotinamide]	–	–	Water Solubility [1]: 1190 µg/mL
CC1=C(c2cnc(NC(=O)c3ccccc3F)cn2)CN(c2nnn(C)n2)CC1 [Compound 33, 2-fluoro-N-(5-(4-methyl-1-(2-methyl-2H-tetrazol-5-yl)-1,2,5,6-tetrahydropyridin-3-yl)pyrazin-2-yl)benzamide]	–	6.82 to 7.12	solubility [2]: 150 µM (≈ 59.2 µg/mL)
CC1=C(c2ccc(NC(=O)c3ccncc3F)cc2)CN(c2nccs2)CC1 [Compound H2SO4, 3-fluoro-N-(4-(4-methyl-1-(thiazol-2-yl)-1,2,5,6-tetrahydropyridin-3-yl)phenyl)isonicotinamide]	–	–	Water Solubility [1]: 12690 µg/mL
CC1=C(c2ccc(NC(=O)c3ccncc3F)cc2)CN(c2nccs2)CC1.Cl.Cl [3-fluoro-N-(4-(4-methyl-1-(thiazol-2-yl)-1,2,5,6-tetrahydropyridin-3-yl)phenyl)isonicotinamide dihydrochloride]	–	–	solubility ([1]; dihydrochloride salt): > 12000 µg/mL; bioavailability ([3]; in vivo, PO, 50 mg/kg, 0.5% MC, read-out: % F (oral bioavailability)): 93.4%; AUC(0-inf) ([3]; IV, 5 mg/kg, DRD formulation): 37.6 µM·h; AUC(0-t) ([3]; IV, 5 mg/kg, DRD formulation): 37.5 µM·h; Cmax ([3]; IV, 5 mg/kg, DRD formulation): 34.6 µM; Tmax ([3]; IV, 5 mg/kg, DRD formulation): 0.083 h; half-life ([3]; IV, 5 mg/kg, DRD formulation): 1 h; AUC(0-inf) ([3]; PO, 50 mg/kg, 0.5% MC): 351 µM·h; AUC(0-t) ([3]; PO, 50 mg/kg, 0.5% MC): 348 µM·h; Cmax ([3]; PO, 50 mg/kg, 0.5% MC): 43.5 µM; Tmax ([3]; PO, 50 mg/kg, 0.5% MC): 2 h; half-life ([3]; PO, 50 mg/kg, 0.5% MC): 3.2 h
CC1=C(c2cnc(NC(=O)c3c(F)cccc3Cl)cn2)CN(c2nccs2)CC1 [Compound 20, 2-chloro-6-fluoro-N-(5-(4-methyl-1-(thiazol-2-yl)-1,2,5,6-tetrahydropyridin-3-yl)pyrazin-2-yl)benzamide]	–	≥ 7.46	solubility [2]: 150 µM (≈ 64.5 µg/mL)
CC1=C(c2cnc(NC(=O)c3c(F)cccc3F)cn2)CN(c2nnn(C)n2)CC1 [Compound 2, 2,6-difluoro-N-(5-(4-methyl-1-(2-methyl-2H-tetrazol-5-yl)-1,2,5,6-tetrahydropyridin-3-yl)pyrazin-2-yl)benzamide]	50 µM (≈ 20.6 µg/mL)	7.12 to 7.46	–
Cn1nnc(N2CCC(Cl)=C(c3ccc(NC(=O)c4c(F)cccc4F)nc3)C2)n1 [Compound 25, N-(5-(4-chloro-1-(2-methyl-2H-tetrazol-5-yl)-1,2,5,6-tetrahydropyridin-3-yl)pyridin-2-yl)-2,6-difluorobenzamide]	50 µM (≈ 21.6 µg/mL)	≥ 7.46	–
CC1=C(c2ccc(NC(=O)c3c(F)cccc3F)nc2)CN(c2nnn(C)n2)CC1 [Compound 6, 2,6-difluoro-N-(5-(4-methyl-1-(2-methyl-2H-tetrazol-5-yl)-1,2,5,6-tetrahydropyridin-3-yl)pyridin-2-yl)benzamide]	50 µM (≈ 20.6 µg/mL)	≥ 7.46	–
CC1=C(c2ccc(NC(=O)c3ccncc3F)cc2)CN(c2nccs2)CC1 [Tartrate, 3-fluoro-N-(4-(4-methyl-1-(thiazol-2-yl)-1,2,5,6-tetrahydropyridin-3-yl)phenyl)isonicotinamide]	–	–	Water Solubility [1]: 1340 µg/mL
CC1=C(c2ccc(NC(=O)c3ccncc3F)cc2)CN(c2nccs2)CC1 [Succinate, 3-fluoro-N-(4-(4-methyl-1-(thiazol-2-yl)-1,2,5,6-tetrahydropyridin-3-yl)phenyl)isonicotinamide]	–	–	Water Solubility [1]: 360 µg/mL
O=C(Nc1ccc(C2=C(Cl)CCN(c3nccs3)C2)cn1)c1ccc(F)cc1F [Compound 27]	50 µM (≈ 21.6 µg/mL)	6.82 to 7.12	–
O=C(Nc1ccc(C2=C(Cl)CCN(c3nccs3)C2)cn1)c1c(F)cccc1F [Compound 26, N-(5-(4-chloro-1-(thiazol-2-yl)-1,2,5,6-tetrahydropyridin-3-yl)pyridin-2-yl)-2,6-difluorobenzamide]	100 µM (≈ 43.3 µg/mL)	≥ 7.46	–
CC1=C(c2cnc(NC(=O)c3ccncc3F)cn2)CN(c2nccs2)CC1 [Compound 4, 3-fluoro-N-(5-(4-methyl-1-(thiazol-2-yl)-1,2,5,6-tetrahydropyridin-3-yl)pyrazin-2-yl)isonicotinamide]	50 µM (≈ 19.8 µg/mL)	≥ 7.46	–
CC1=C(c2ccc(NC(=O)c3c(F)cccc3Cl)nc2)CN(c2nnn(C)n2)CC1 [Compound 23, 2-chloro-6-fluoro-N-(5-(4-methyl-1-(2-methyl-2H-tetrazol-5-yl)-1,2,5,6-tetrahydropyridin-3-yl)pyridin-2-yl)benzamide]	25 µM (≈ 10.7 µg/mL)	< 6.00	–
CC1=C(c2cnc(NC(=O)c3c(F)cccc3F)cn2)CN(c2ncco2)CC1 [Compound 30, 2,6-difluoro-N-(5-(4-methyl-1-(oxazol-2-yl)-1,2,5,6-tetrahydropyridin-3-yl)pyrazin-2-yl)benzamide]	–	7.12 to 7.46	solubility [2]: 150 µM (≈ 59.6 µg/mL)
CC1=C(c2cnc(NC(=O)c3ccc(F)cc3F)cn2)CN(c2nnn(C)n2)CC1 [Compound 24, 2,4-difluoro-N-(5-(4-methyl-1-(2-methyl-2H-tetrazol-5-yl)-1,2,5,6-tetrahydropyridin-3-yl)pyrazin-2-yl)benzamide]	50 µM (≈ 20.6 µg/mL)	6.82 to 7.12	–

More lines, main results first:

solubility ([2]; simulated gastric fluid)	pIC50 (IL-2 production)	SMILES	other results
50 µM (≈ 19.7 µg/mL)	≥ 7.46	CC1=C(c2ccc(NC(=O)c3ccccc3F)cc2)CN(c2nccs2)CC1 [Compound 12, 2-fluoro-N-(4-(4-methyl-1-(thiazol-2-yl)-1,2,5,6-tetrahydropyridin-3-yl)phenyl)benzamide]	–
25 µM (≈ 9.89 µg/mL)	7.12 to 7.46	CC1=C(c2cnc(NC(=O)c3ccccc3F)cn2)CN(c2nccs2)CC1 [Compound 31, 2-fluoro-N-(5-(4-methyl-1-(thiazol-2-yl)-1,2,5,6-tetrahydropyridin-3-yl)pyrazin-2-yl)benzamide]	–
100 µM (≈ 41.2 µg/mL)	6.82 to 7.12	CC1=C(c2ccc(NC(=O)c3c(F)cccc3F)cn2)CN(c2nccs2)CC1 [Compound 11, 2,6-difluoro-N-(6-(4-methyl-1-(thiazol-2-yl)-1,2,5,6-tetrahydropyridin-3-yl)pyridin-3-yl)benzamide]	–
50 µM (≈ 22.2 µg/mL)	6.82 to 7.12	CC1=C(c2ccc(NC(=O)c3c(Cl)cccc3Cl)cc2)CN(c2nccs2)CC1 [Compound 10, 2,6-dichloro-N-(4-(4-methyl-1-(thiazol-2-yl)-1,2,5,6-tetrahydropyridin-3-yl)phenyl)benzamide]	–
50 µM (≈ 19.7 µg/mL)	7.12 to 7.46	CC1=C(c2ccc(NC(=O)c3ccccc3F)nc2)CN(c2nnn(C)n2)CC1 [Compound 29, 2-fluoro-N-(5-(4-methyl-1-(2-methyl-2H-tetrazol-5-yl)-1,2,5,6-tetrahydropyridin-3-yl)pyridin-2-yl)benzamide]	–
50 µM (≈ 19.9 µg/mL)	≥ 7.46	CC1=C(c2ccc(NCc3c(F)cccc3F)cc2)CN(c2nccs2)CC1 [Compound 5, N-(2,6-difluorobenzyl)-4-(4-methyl-1-(thiazol-2-yl)-1,2,5,6-tetrahydropyridin-3-yl)aniline]	–
–	≥ 7.46	CCC(Cl)C(=O)Nc1ccc(C2=C(C)CCN(c3nccs3)C2)cc1 (centres unmarked) [Compound 15, 2-chloro-N-(4-(4-methyl-1-(thiazol-2-yl)-1,2,5,6-tetrahydropyridin-3-yl)phenyl)butanamide]	solubility [2]: 150 µM (≈ 56.4 µg/mL)
100 µM	7.12 to 7.46	CC1=C(c2ccc(NCc3c(F)cccc3F)nc2)CN(c2nccs2)CC1.Cl.Cl [Compound 7, N-(2,6-difluorobenzyl)-5-(4-methyl-1-(thiazol-2-yl)-1,2,5,6-tetrahydropyridin-3-yl)pyridin-2-amine dihydrochloride]	–
50 µM (≈ 20.5 µg/mL)	6.00 to 6.82	CC1=C(c2ccc(NC(=O)c3c(O)cccc3F)cc2)CN(c2nccs2)CC1 [Compound 13, 2-fluoro-6-hydroxy-N-(4-(4-methyl-1-(thiazol-2-yl)-1,2,5,6-tetrahydropyridin-3-yl)phenyl)benzamide]	–
–	≥ 7.46	CC1=C(c2ccc(NC(=O)c3ccc(F)cc3F)cc2)CN(c2nccs2)CC1 [Compound 16, 2,4-difluoro-N-(4-(4-methyl-1-(thiazol-2-yl)-1,2,5,6-tetrahydropyridin-3-yl)phenyl)benzamide]	solubility [2]: 150 µM (≈ 61.7 µg/mL)
